Assay results from ChEMBL document CHEMBL1201862, “PubChem BioAssay data set” (2004).
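A five-concentration, 48-hour dose response in 96-well plates underlies each endpoint, interpolated linearly between surrounding concentrations. GI50 is the concentration that inhibits growth by half.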 Calls of active or inactive are those of the source. Rule as the data show it: active = GI50 up to about 1.1 µM and inactive = higher.

Experiments:
Assay in all cases: NCI tumour cell line growth inhibition, 48 h
786-0 = system: 786-0
UO-31 = system: UO-31
EKVX = system: EKVX
T47D = system: T47D
SK-MEL-5 = system: SK-MEL-5
MDA-MB-435 = system: MDA-MB-435
OVCAR-4 = system: OVCAR-4
MDA-MB-231 = system: MDA-MB-231
CCRF-CEM = system: CCRF-CEM
HCC 2998 = system: HCC 2998
IGROV-1 = system: IGROV-1
UACC-62 = system: UACC-62
Hs-578T = system: Hs-578T
SNB-19 = system: SNB-19
COLO 205 = system: COLO 205
ACHN = system: ACHN
OVCAR-8 = system: OVCAR-8
HCT-15 = system: HCT-15
LOX IMVI = system: LOX IMVI

Structure (SMILES)	GI50 (786-0)	GI50 (UO-31)	GI50 (EKVX)	GI50 (T47D)	GI50 (SK-MEL-5)	GI50 (MDA-MB-435)	GI50 (OVCAR-4)	GI50 (MDA-MB-231)	GI50 (CCRF-CEM)	GI50 (HCC 2998)	GI50 (IGROV-1)	GI50 (UACC-62)	GI50 (Hs-578T)	GI50 (SNB-19)	GI50 (COLO 205)	GI50 (ACHN)	GI50 (OVCAR-8)	GI50 (HCT-15) [µM]	GI50 (LOX IMVI)
CC(O)/C=C/C1OC(=O)CC1Nc1ccc(C=O)cc1 (stereo unspecified)	> 100 µM (inactive)	51.2 µM (inactive)	> 100 µM (inactive)	60.7 µM (inactive)	16.6 µM (inactive)	> 100 µM (inactive)	> 100 µM (inactive)	> 100 µM (inactive)	15.8 µM (inactive)	> 100 µM (inactive)	91.2 µM (inactive)	23.7 µM (inactive)	> 100 µM (inactive)	> 100 µM (inactive)	42.9 µM (inactive)	> 100 µM (inactive)	> 100 µM (inactive)	60.7	> 100 µM (inactive)
CC(C)(C)c1ccc2c(c1)C#Cc1cc3c(cc1OCCCO2)C#Cc1cc(C(C)(C)C)ccc1OCCCO3	> 100 µM (inactive)		> 100 µM (inactive)	> 100 µM (inactive)	> 100 µM (inactive)	> 100 µM (inactive)	> 100 µM (inactive)	> 100 µM (inactive)	42.4 µM (inactive)	> 100 µM (inactive)	> 100 µM (inactive)	> 100 µM (inactive)	> 100 µM (inactive)	> 100 µM (inactive)	> 100 µM (inactive)	> 100 µM (inactive)	> 100 µM (inactive)	2.45	> 100 µM (inactive)
CCN1CCC(O)(c2ccc(Oc3ccccc3)cc2)C(C(=O)c2ccc(Oc3ccccc3)cc2)C1 (stereo unspecified)	5.5 µM (inactive)	7.94 µM (inactive)	16 µM (inactive)	11.6 µM (inactive)	12.5 µM (inactive)	12.9 µM (inactive)	10.6 µM (inactive)	14.6 µM (inactive)	5.81 µM (inactive)	6.62 µM (inactive)	15.4 µM (inactive)	13.2 µM (inactive)	23.7 µM (inactive)	14.6 µM (inactive)	13.6 µM (inactive)	15.5 µM (inactive)	17.1 µM (inactive)	12.2	3.84 µM (inactive)
COc1cccc2c1C(=O)c1c(O)c3c(c(O)c1C2=O)C[C@@](O)(/C(C)=N/NC(=O)c1ccc(Cl)c(Cl)c1)C[C@@H]3OC1CC(N)C(O)C(C)O1 (stereo partly specified)	0.191 µM (active)	1.08 µM (active)	0.904 µM (active)	0.372 µM (active)	0.116 µM (active)	0.27 µM (active)	0.0668 µM (active)	0.711 µM (active)	0.0299 µM (active)	0.146 µM (active)	0.462 µM (active)	0.11 µM (active)	0.528 µM (active)	0.0792 µM (active)	0.176 µM (active)	0.0364 µM (active)	0.292 µM (active)	0.219	0.0249 µM (active)
COC(=O)[C@@H]1[C@H]2CC[C@]3(C)[C@@H](OC(C)=O)CC[C@H]3[C@@H]2CC[C@H]1C1(C)SCCS1	22.7 µM (inactive)	38.6 µM (inactive)	25.1 µM (inactive)	20.4 µM (inactive)	8.77 µM (inactive)	16.3 µM (inactive)	25.1 µM (inactive)	17.1 µM (inactive)	36.9 µM (inactive)	35.6 µM (inactive)	49.2 µM (inactive)	28.2 µM (inactive)	23.7 µM (inactive)	50.5 µM (inactive)	13.5 µM (inactive)	37.2 µM (inactive)	25 µM (inactive)	32	19.4 µM (inactive)
CNC(=O)OCC1=C(COC(=O)NC)C(C)N(c2ccccc2)C1 (stereo unspecified)	47.2 µM (inactive)	22.9 µM (inactive)	46.1 µM (inactive)	26.7 µM (inactive)	17.1 µM (inactive)	38.3 µM (inactive)	37.8 µM (inactive)	41.2 µM (inactive)	37.2 µM (inactive)	25.2 µM (inactive)	26.2 µM (inactive)	26.2 µM (inactive)	43.4 µM (inactive)	58.5 µM (inactive)	21.2 µM (inactive)	33.7 µM (inactive)	36.6 µM (inactive)	31	32.7 µM (inactive)
COc1ccc(C(OC(=O)[C@H](O[Si](C)(C)C(C)(C)C)[C@@H](NC(=O)c2ccccc2)c2ccccc2)c2ccc(OC)cc2)cc1	> 100 µM (inactive)	> 100 µM (inactive)	> 100 µM (inactive)	> 100 µM (inactive)	77.1 µM (inactive)	> 100 µM (inactive)	> 100 µM (inactive)	48.3 µM (inactive)	> 100 µM (inactive)	68.1 µM (inactive)	> 100 µM (inactive)	> 100 µM (inactive)	> 100 µM (inactive)	> 100 µM (inactive)	> 100 µM (inactive)	> 100 µM (inactive)	> 100 µM (inactive)	> 100	> 100 µM (inactive)
Cc1cccc(/C=N/NC(=S)Nc2ccc(Cl)cc2)n1	1.63 µM (inactive)	1.87 µM (inactive)	2.41 µM (inactive)	0.611 µM (active)	0.993 µM (active)	0.205 µM (active)	4.78 µM (inactive)	0.897 µM (active)	0.695 µM (active)	7.8 µM (inactive)	0.811 µM (active)	0.643 µM (active)	2.18 µM (inactive)	2.31 µM (inactive)	0.658 µM (active)	1.12 µM (active)	3.74 µM (inactive)	0.519	1.04 µM (active)
O=C(N[C@H]1CCC[C@H]1C(=O)Nc1ccc(C(F)(F)F)cc1)OCc1ccccc1	> 100 µM (inactive)	> 100 µM (inactive)	> 100 µM (inactive)	> 100 µM (inactive)	> 100 µM (inactive)	> 100 µM (inactive)	> 100 µM (inactive)	> 100 µM (inactive)	> 100 µM (inactive)	> 100 µM (inactive)	> 100 µM (inactive)	> 100 µM (inactive)	88.5 µM (inactive)	> 100 µM (inactive)	> 100 µM (inactive)	> 100 µM (inactive)	> 100 µM (inactive)	> 100	> 100 µM (inactive)
CN(C)N1C(=O)c2ccccc2NC1c1ccccc1 (stereo unspecified)	> 100 µM (inactive)	> 100 µM (inactive)	> 100 µM (inactive)	> 100 µM (inactive)	> 100 µM (inactive)	> 100 µM (inactive)	> 100 µM (inactive)	> 100 µM (inactive)	> 100 µM (inactive)	> 100 µM (inactive)	> 100 µM (inactive)	> 100 µM (inactive)	> 100 µM (inactive)	> 100 µM (inactive)	> 100 µM (inactive)	> 100 µM (inactive)	> 100 µM (inactive)	> 100	> 100 µM (inactive)
Cc1nc2ccc(Br)cc2c(=O)n1-c1nnc(C(C)(C)C)s1	> 10 µM (inactive)	2 µM (inactive)	> 10 µM (inactive)	> 10 µM (inactive)	> 10 µM (inactive)	> 10 µM (inactive)	> 10 µM (inactive)	> 10 µM (inactive)	> 10 µM (inactive)	> 10 µM (inactive)	> 10 µM (inactive)	> 10 µM (inactive)	7.46 µM (inactive)	> 10 µM (inactive)	> 10 µM (inactive)	> 10 µM (inactive)	> 10 µM (inactive)	> 10	> 10 µM (inactive)
N#CC1=C(S)N(C2OC(CO)C(O)C(O)C2O)C(c2ccccc2)=CC1c1cccs1 (stereo unspecified)	16.5 µM (inactive)	48.8 µM (inactive)		19.2 µM (inactive)	14.1 µM (inactive)	20.3 µM (inactive)	33.8 µM (inactive)	27.2 µM (inactive)	22.3 µM (inactive)	21.7 µM (inactive)	22.6 µM (inactive)	18.8 µM (inactive)	23.4 µM (inactive)	> 10 µM (inactive)	21.1 µM (inactive)	18.7 µM (inactive)	22.3 µM (inactive)	32.7	18.7 µM (inactive)
COc1ccc(/C=C2\N=C3Sc4c([nH]cnc4=O)N3C2=O)cc1	> 100 µM (inactive)	> 100 µM (inactive)	78.9 µM (inactive)	> 100 µM (inactive)	> 100 µM (inactive)	> 100 µM (inactive)	> 100 µM (inactive)	> 100 µM (inactive)	> 100 µM (inactive)	13.1 µM (inactive)	> 100 µM (inactive)		> 100 µM (inactive)	> 100 µM (inactive)	> 100 µM (inactive)	> 100 µM (inactive)	> 100 µM (inactive)	> 100	> 100 µM (inactive)
CC(C)(C)OC(=O)[N+](=N)C(=O)C1CCC(=O)N1C(=O)OCc1ccccc1 (stereo unspecified)	> 100 µM (inactive)	> 100 µM (inactive)	> 100 µM (inactive)	> 100 µM (inactive)	> 100 µM (inactive)	86.7 µM (inactive)	> 100 µM (inactive)	> 100 µM (inactive)	> 100 µM (inactive)	> 100 µM (inactive)	> 100 µM (inactive)	> 100 µM (inactive)	> 100 µM (inactive)	> 100 µM (inactive)	> 100 µM (inactive)	> 100 µM (inactive)	> 100 µM (inactive)		> 100 µM (inactive)
COC(=O)C1CC2(C)C=CC1N(C(=O)OCc1ccccc1)C2 (stereo unspecified)	> 100 µM (inactive)	69.5 µM (inactive)	38.2 µM (inactive)	40 µM (inactive)	34.8 µM (inactive)	79.6 µM (inactive)	40 µM (inactive)	> 100 µM (inactive)	69 µM (inactive)	> 100 µM (inactive)	> 100 µM (inactive)	51.5 µM (inactive)	86.5 µM (inactive)	> 100 µM (inactive)	> 100 µM (inactive)	> 100 µM (inactive)	> 100 µM (inactive)	94	> 100 µM (inactive)
